Data: ChEMBL document CHEMBL1201862, “PubChem BioAssay data set” (2004)
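48-hour exposure; five concentrations; linearly interpolated endpoints. GI50 = concentration required for 50% inhibition of growth.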 Active and inactive are the calls of the source. Rule as the data show it: active = GI50 up to about 1.1 µM and inactive = higher.

How the values were obtained:
Assay in all cases: NCI-60 cell line screen, 48 h
KM-20L2 = tested on: KM-20L2
HCC 2998 = tested on: HCC 2998
OVCAR-8 = tested on: OVCAR-8
SF-295 = tested on: SF-295
KM12 = tested on: KM12
SK-MEL-5 = tested on: SK-MEL-5
NCI-H23 = tested on: NCI-H23
NCI-H226 = tested on: NCI-H226
TK-10 = tested on: TK-10
SNB-19 = tested on: SNB-19
CCRF-CEM = tested on: CCRF-CEM
NCI-H460 = tested on: NCI-H460
SNB-75 = tested on: SNB-75
A549 = tested on: A549
SK-MEL-2 = tested on: SK-MEL-2
NCI-H522 = tested on: NCI-H522
CAKI-1 = tested on: CAKI-1
NCI/ADR-RES = tested on: NCI/ADR-RES
DMS-114 = tested on: DMS-114
HOP-18 = tested on: HOP-18

Cc1cc(C)nc(NS(=O)(=O)c2ccc(NC(=O)c3cccn4c(=O)c5ccccc5nc34)cc2)n1
GI50 (KM-20L2): > 100 µM (inactive) | GI50 (HCC 2998): > 100 µM (inactive) | GI50 (OVCAR-8): 27.7 µM (inactive) | GI50 (SF-295): > 100 µM (inactive) | GI50 (KM12): 41.1 µM (inactive) | GI50 (SK-MEL-5): 37.9 µM (inactive) | GI50 (NCI-H23): 35.3 µM (inactive) | GI50 (NCI-H226): 37.6 µM (inactive) | GI50 (TK-10): > 100 µM (inactive) | GI50 (SNB-19): 62.5 µM (inactive) | GI50 (CCRF-CEM): 27.5 µM (inactive) | GI50 (NCI-H460): 41.5 µM (inactive) | GI50 (SNB-75): 32.7 µM (inactive) | GI50 (A549): > 100 µM (inactive) | GI50 (SK-MEL-2): > 100 µM (inactive) | GI50 (NCI-H522): 21.5 µM (inactive)

CCCCN1CN2C(=O)C(C(=O)OCC)C(=O)c3sc4nc(SC)nc1c4c32 (centres undefined)
GI50 (OVCAR-8): 21.6 µM (inactive) | GI50 (SF-295): 16.6 µM (inactive) | GI50 (KM12): 16.8 µM (inactive) | GI50 (SK-MEL-5): 12.3 µM (inactive) | GI50 (NCI-H23): 18 µM (inactive) | GI50 (NCI-H226): 19 µM (inactive) | GI50 (CAKI-1): 17.3 µM (inactive) | GI50 (TK-10): 14.9 µM (inactive) | GI50 (SNB-19): 19 µM (inactive) | GI50 (NCI/ADR-RES): 19 µM (inactive) | GI50 (CCRF-CEM): 34 µM (inactive) | GI50 (NCI-H460): 19.5 µM (inactive) | GI50 (SNB-75): 17.5 µM (inactive) | GI50 (A549): 19.9 µM (inactive) | GI50 (SK-MEL-2): 19.8 µM (inactive) | GI50 (NCI-H522): 18.9 µM (inactive)

CCOC(=O)C1=C(C)N2CCCOC2(C)C(C(=O)OC)C1c1cccc([N+](=O)[O-])c1 (centres undefined)
GI50 (KM-20L2): > 100 µM (inactive) | GI50 (HCC 2998): > 100 µM (inactive) | GI50 (OVCAR-8): 48 µM (inactive) | GI50 (SF-295): 45.2 µM (inactive) | GI50 (DMS-114): 44.8 µM (inactive) | GI50 (KM12): 49.9 µM (inactive) | GI50 (SK-MEL-5): 39.6 µM (inactive) | GI50 (NCI-H23): > 100 µM (inactive) | GI50 (NCI-H226): > 100 µM (inactive) | GI50 (CAKI-1): 64.9 µM (inactive) | GI50 (TK-10): > 100 µM (inactive) | GI50 (SNB-19): > 100 µM (inactive) | GI50 (CCRF-CEM): 76.6 µM (inactive) | GI50 (NCI-H460): 57.4 µM (inactive) | GI50 (SNB-75): 13.6 µM (inactive) | GI50 (A549): 64.3 µM (inactive) | GI50 (SK-MEL-2): > 100 µM (inactive)

CCOC(=O)c1ccc(C)c(/N=N/N(C)C)c1
GI50 (KM-20L2): > 100 µM (inactive) | GI50 (HCC 2998): > 100 µM (inactive) | GI50 (OVCAR-8): > 100 µM (inactive) | GI50 (SF-295): > 100 µM (inactive) | GI50 (DMS-114): > 100 µM (inactive) | GI50 (KM12): > 100 µM (inactive) | GI50 (HOP-18): 4.32 µM (inactive) | GI50 (SK-MEL-5): > 100 µM (inactive) | GI50 (NCI-H23): > 100 µM (inactive) | GI50 (NCI-H226): > 100 µM (inactive) | GI50 (CAKI-1): > 100 µM (inactive) | GI50 (TK-10): > 100 µM (inactive) | GI50 (SNB-19): 86.7 µM (inactive) | GI50 (CCRF-CEM): > 100 µM (inactive) | GI50 (NCI-H460): > 100 µM (inactive) | GI50 (SNB-75): > 100 µM (inactive) | GI50 (A549): > 100 µM (inactive) | GI50 (SK-MEL-2): > 100 µM (inactive) | GI50 (NCI-H522): > 100 µM (inactive)

CC(C)NC(=O)OCc1c(CO)c2c(n1C)-c1ccccc1CC2
GI50 (KM-20L2): 30.8 µM (inactive) | GI50 (HCC 2998): 19.9 µM (inactive) | GI50 (OVCAR-8): 22.5 µM (inactive) | GI50 (SF-295): 86.9 µM (inactive) | GI50 (DMS-114): 18.7 µM (inactive) | GI50 (KM12): 34.4 µM (inactive) | GI50 (HOP-18): 15 µM (inactive) | GI50 (SK-MEL-5): 27.2 µM (inactive) | GI50 (NCI-H23): 26.7 µM (inactive) | GI50 (NCI-H226): 21.7 µM (inactive) | GI50 (CAKI-1): 15.8 µM (inactive) | GI50 (SNB-19): 42.2 µM (inactive) | GI50 (NCI/ADR-RES): 24.5 µM (inactive) | GI50 (CCRF-CEM): 12.6 µM (inactive) | GI50 (NCI-H460): 25.5 µM (inactive) | GI50 (SNB-75): 33 µM (inactive) | GI50 (A549): 40.6 µM (inactive) | GI50 (SK-MEL-2): 37.1 µM (inactive) | GI50 (NCI-H522): 16.7 µM (inactive)

COc1ccc(CN/C=N/C(C#N)=C(\N)C#N)cc1OC
GI50 (HCC 2998): > 100 µM (inactive) | GI50 (OVCAR-8): > 100 µM (inactive) | GI50 (SF-295): > 100 µM (inactive) | GI50 (KM12): > 100 µM (inactive) | GI50 (SK-MEL-5): > 100 µM (inactive) | GI50 (NCI-H23): > 100 µM (inactive) | GI50 (NCI-H226): > 100 µM (inactive) | GI50 (CAKI-1): > 100 µM (inactive) | GI50 (TK-10): > 100 µM (inactive) | GI50 (SNB-19): > 100 µM (inactive) | GI50 (NCI/ADR-RES): > 100 µM (inactive) | GI50 (CCRF-CEM): > 100 µM (inactive) | GI50 (NCI-H460): > 100 µM (inactive) | GI50 (SNB-75): 76.7 µM (inactive) | GI50 (A549): > 100 µM (inactive) | GI50 (SK-MEL-2): > 100 µM (inactive) | GI50 (NCI-H522): > 100 µM (inactive)

CN(C)CC(C)(C)/C(=N\Nc1ccccc1)c1ccccc1
GI50 (KM-20L2): 16.8 µM (inactive) | GI50 (OVCAR-8): 99.8 µM (inactive) | GI50 (SF-295): 21.1 µM (inactive) | GI50 (DMS-114): 46.7 µM (inactive) | GI50 (KM12): 43.3 µM (inactive) | GI50 (HOP-18): 35 µM (inactive) | GI50 (SK-MEL-5): 70 µM (inactive) | GI50 (NCI-H23): > 100 µM (inactive) | GI50 (TK-10): 22.7 µM (inactive) | GI50 (SNB-19): > 100 µM (inactive) | GI50 (CCRF-CEM): 29.7 µM (inactive) | GI50 (NCI-H460): 53.3 µM (inactive) | GI50 (SNB-75): 37.1 µM (inactive) | GI50 (A549): 92.5 µM (inactive) | GI50 (SK-MEL-2): 58.1 µM (inactive) | GI50 (NCI-H522): 44.3 µM (inactive)

Cc1cccc2ns[s+]c12
GI50 (KM-20L2): > 100 µM (inactive) | GI50 (HCC 2998): > 100 µM (inactive) | GI50 (OVCAR-8): 47.1 µM (inactive) | GI50 (SF-295): > 100 µM (inactive) | GI50 (DMS-114): 20.5 µM (inactive) | GI50 (KM12): > 100 µM (inactive) | GI50 (HOP-18): > 100 µM (inactive) | GI50 (SK-MEL-5): 89.7 µM (inactive) | GI50 (NCI-H23): > 100 µM (inactive) | GI50 (NCI-H226): > 100 µM (inactive) | GI50 (CAKI-1): > 100 µM (inactive) | GI50 (TK-10): > 100 µM (inactive) | GI50 (SNB-19): 66.8 µM (inactive) | GI50 (CCRF-CEM): 33.3 µM (inactive) | GI50 (NCI-H460): 23 µM (inactive) | GI50 (SNB-75): 59 µM (inactive) | GI50 (A549): > 100 µM (inactive)

CCN1CCCC(NCc2c3ccccc3c(CNC3CCCN(CC)C3)c3ccccc23)C1 (centres undefined)
GI50 (KM-20L2): 3.76 µM (inactive) | GI50 (HCC 2998): 13.1 µM (inactive) | GI50 (OVCAR-8): > 33.7 µM (inactive) | GI50 (SF-295): 4.67 µM (inactive) | GI50 (DMS-114): 4.99 µM (inactive) | GI50 (KM12): 5.45 µM (inactive) | GI50 (HOP-18): 5.92 µM (inactive) | GI50 (SK-MEL-5): 14.1 µM (inactive) | GI50 (NCI-H23): 15.6 µM (inactive) | GI50 (NCI-H226): 13.4 µM (inactive) | GI50 (CAKI-1): 16.1 µM (inactive) | GI50 (SNB-19): 11.1 µM (inactive) | GI50 (NCI/ADR-RES): 25 µM (inactive) | GI50 (CCRF-CEM): 3.34 µM (inactive) | GI50 (NCI-H460): 3.65 µM (inactive) | GI50 (SNB-75): 7.98 µM (inactive) | GI50 (A549): > 48 µM (inactive) | GI50 (SK-MEL-2): 5.16 µM (inactive) | GI50 (NCI-H522): 2.49 µM (inactive)

CCCCS(=N)(=O)CC[C@H](N)C(=O)O (some centres undefined) [BUTHIONINE SULFOXIME]
GI50 (KM-20L2): > 5000 µM (inactive) | GI50 (HCC 2998): > 5000 µM (inactive) | GI50 (OVCAR-8): 2320 µM (inactive) | GI50 (SF-295): > 5000 µM (inactive) | GI50 (DMS-114): > 5000 µM (inactive) | GI50 (KM12): > 5000 µM (inactive) | GI50 (HOP-18): > 5000 µM (inactive) | GI50 (SK-MEL-5): > 5000 µM (inactive) | GI50 (NCI-H23): 3420 µM (inactive) | GI50 (NCI-H226): > 5000 µM (inactive) | GI50 (CAKI-1): 3400 µM (inactive) | GI50 (TK-10): > 5000 µM (inactive) | GI50 (SNB-19): > 5000 µM (inactive) | GI50 (NCI/ADR-RES): 2840 µM (inactive) | GI50 (CCRF-CEM): 1040 µM (inactive) | GI50 (NCI-H460): 4730 µM (inactive) | GI50 (SNB-75): 2320 µM (inactive) | GI50 (A549): > 5000 µM (inactive) | GI50 (SK-MEL-2): > 5000 µM (inactive) | GI50 (NCI-H522): 140 µM (inactive)

CCCCCCCCCCCCCCCCSCC(COC)COP(=O)([O-])OCC[N+](C)(C)C (centres undefined) [ILMOFOSINE]
GI50 (HCC 2998): 1.52 µM (inactive) | GI50 (OVCAR-8): 9.06 µM (inactive) | GI50 (SF-295): 2.49 µM (inactive) | GI50 (DMS-114): 7.5 µM (inactive) | GI50 (KM12): 0.977 µM (active) | GI50 (HOP-18): 4.12 µM (inactive) | GI50 (SK-MEL-5): 12.7 µM (inactive) | GI50 (NCI-H23): 13.6 µM (inactive) | GI50 (NCI-H226): 3.72 µM (inactive) | GI50 (CAKI-1): 3.52 µM (inactive) | GI50 (SNB-19): 4.3 µM (inactive) | GI50 (NCI/ADR-RES): 16.5 µM (inactive) | GI50 (CCRF-CEM): 2.9 µM (inactive) | GI50 (NCI-H460): 2.5 µM (inactive) | GI50 (SNB-75): 3.31 µM (inactive) | GI50 (A549): 7.21 µM (inactive) | GI50 (SK-MEL-2): 15.5 µM (inactive) | GI50 (NCI-H522): 2.34 µM (inactive)
